Reference: ChEMBL document CHEMBL1123524, “Aminoglycoside antibiotics. 6. Chemical reactions of aminoglycosides with disodium carbenicillin” (1986)
In brackets after ≈: the same amount, converted by molar mass.

What was measured:
Pseudomonas aeruginosa [1] = assay: Antibacterial activity expressed as MIC value was determined on Pseudomonas aeruginosa A-22233 organism; format: functional
Pseudomonas aeruginosa [2] = assay: Antibacterial activity expressed as MIC value was determined on Pseudomonas aeruginosa A-21508 organism; format: functional
Escherichia coli [3] = assay: Antibacterial activity expressed as MIC value was determined on Escherichia coli A-20895 organism; format: functional
Providencia rettgeri [4] = assay: (§1) Antibacterial activity expressed as MIC value was determined on Proteus rettgeri A-9637 organism; format: functional
Escherichia coli [5] = assay: Antibacterial activity expressed as MIC value was determined on Escherichia coli A-21218 organism; format: functional
Escherichia coli [6] = assay: Antibacterial activity expressed as MIC value was determined on Escherichia coli A-22045 organism; format: functional
Escherichia coli [7] = assay: (§2) Antibacterial activity expressed as MIC value was determined on Escherichia coli A-22356 organism; format: functional
Proteus mirabilis = assay: Antibacterial activity expressed as MIC value was determined on Proteus mirabilis A-9900 organism; format: functional
Staphylococcus aureus [8] = assay: Antibacterial activity expressed as MIC value was determined on Staphylococcus aureus A-21978 organism; format: functional
Pseudomonas aeruginosa [9] = assay: Antibacterial activity expressed as MIC value was determined on Pseudomonas aeruginosa A-20653 organism; format: functional
Klebsiella pneumoniae = assay: Antibacterial activity expressed as MIC value was determined on Klebsiella pneumonia A-20468 organism; format: functional
Escherichia coli [10] = assay: Antibacterial activity expressed as MIC value was determined on Escherichia coli A-20683 organism; format: functional
Enterobacter cloacae [11] = assay: Antibacterial activity expressed as MIC value was determined on Enterobacter cloacae A-9656 organism; format: functional
Enterobacter cloacae [12] = assay: Antibacterial activity expressed as MIC value was determined on Enterobacter cloacae A-21136 organism; format: functional
Pseudomonas aeruginosa [13] = assay: Antibacterial activity expressed as MIC value was determined on Pseudomonas aeruginosa A-20601 organism; format: functional
Providencia rettgeri [14] = assay: ntibacterial activity expressed as MIC value was determined on Proteus rettgeri A-21207 organism; format: functional
Pseudomonas aeruginosa [15] = assay: Antibacterial activity expressed as MIC value was determined on Pseudomonas aeruginosa A-20717 organism; format: functional
Enterobacter cloacae [16] = assay: Antibacterial activity expressed as MIC value was determined on Enterobacter cloacae A-20364 organism; format: functional
Staphylococcus aureus [17] = assay: Antibacterial activity expressed as MIC value was determined on Staphylococcus aureus A-22231 organism; format: functional
Providencia stuartii [18] = assay: Antibacterial activity expressed as MIC value was determined on Proteus stuartii A-21210 organism; format: functional
Pseudomonas aeruginosa [19] = assay: Antibacterial activity expressed as MIC value was determined on Pseudomonas aeruginosa A-20897 organism; format: functional
Staphylococcus aureus [20] = assay: Antibacterial activity expressed as MIC value was determined on Staphylococcus aureus A-9537 organism; format: functional
Staphylococcus aureus [21] = assay: Antibacterial activity expressed as MIC value was determined on Staphylococcus aureus A-22058 organism; format: functional
Pseudomonas aeruginosa [22] = assay: Antibacterial activity expressed as MIC value was determined on Pseudomonas aeruginosa A-20741 organism; format: functional
Escherichia coli [23] = assay: Antibacterial activity expressed as MIC value was determined on Escherichia coli A-20697 organism; format: functional
Providencia stuartii [24] = assay: Antibacterial activity expressed as MIC value was determined on Proteus stuartii A-20894 organism; format: functional
Pseudomonas aeruginosa [25] = assay: Antibacterial activity expressed as MIC value was determined on Pseudomonas aeruginosa A-9834A organism; format: functional
Staphylococcus aureus [26] = assay: Antibacterial activity expressed as MIC value was determined on Staphylococcus aureus A-20240 organism; format: functional
Staphylococcus aureus [27] = assay: Antibacterial activity expressed as MIC value was determined on Staphylococcus aureus A-22210 organism; format: functional
Escherichia coli [28] = assay: Antibacterial activity expressed as MIC value was determined on Escherichia coli A-20732 organism; format: functional
Serratia marcescens = assay: Antibacterial activity expressed as MIC value was determined on Serratia marcescens A-20019 organism; format: functional
Escherichia coli [29] = assay: Antibacterial activity expressed as MIC value was determined on Escherichia coli A-20665 organism; format: functional
Pseudomonas aeruginosa [30] = assay: Antibacterial activity expressed as MIC value was determined on Pseudomonas aeruginosa A-21294 organism; format: functional
Escherichia coli [31] = assay: Antibacterial activity expressed as MIC value was determined on Escherichia coli A-9632 organism; format: functional
Pseudomonas aeruginosa [32] = assay: Antibacterial activity expressed as MIC value was determined on Pseudomonas aeruginosa A-21509 organism; format: functional
Enterobacter cloacae [33] = assay: Antibacterial activity expressed as MIC value was determined on Enterobacter cloacae A-21006 organism; format: functional
Staphylococcus aureus [34] = assay: Antibacterial activity expressed as MIC value was determined on Staphylococcus aureusA-22058 organism; format: functional, organism-based
Escherichia coli [35] = assay: as §2; format: functional; remark: listed apart in the source
Providencia rettgeri [36] = assay: Antibacterial activity expressed as MIC value was determined on Proteus rettgeri A-21207 organism; format: functional
Providencia rettgeri [37] = assay: as §1; format: functional; remark: listed apart in the source

Compound | MIC (Pseudomonas aeruginosa [1]) | MIC (Pseudomonas aeruginosa [2]) | MIC (Escherichia coli [3]) | MIC (Escherichia coli [5]) | MIC (Escherichia coli [6]) | MIC (Proteus mirabilis) | MIC (Staphylococcus aureus [8]) | MIC (Pseudomonas aeruginosa [9]) | MIC (Klebsiella pneumoniae) | MIC (Escherichia coli [10]) | MIC (Enterobacter cloacae [11]) | MIC (Enterobacter cloacae [12]) | MIC (Pseudomonas aeruginosa [13]) | MIC (Pseudomonas aeruginosa [15]) | MIC (Enterobacter cloacae [16]) | MIC (Staphylococcus aureus [17]) | MIC (Providencia stuartii [18]) | MIC (Pseudomonas aeruginosa [19]) | MIC (Staphylococcus aureus [20]) | MIC (Pseudomonas aeruginosa [22]) | also measured
NC[C@H]1O[C@H](O[C@H]2[C@H](O)[C@@H](O[C@H]3O[C@H](CO)[C@@H](O)[C@H](N)[C@H]3O)[C@H](N)C[C@@H]2N)[C@H](N)C[C@@H]1O [TOBRAMYCIN] | 125 µg/mL (≈ 267 µM) | 0.06 µg/mL (≈ 0.128 µM) | 0.5 µg/mL (≈ 1.07 µM) | 8 µg/mL (≈ 17.1 µM) | 4 µg/mL (≈ 8.56 µM) | 0.5 µg/mL (≈ 1.07 µM) | 32 µg/mL (≈ 68.4 µM) | 0.13 µg/mL (≈ 0.278 µM) | 0.06 µg/mL (≈ 0.128 µM) | 16 µg/mL (≈ 34.2 µM) | 0.25 µg/mL (≈ 0.535 µM) | 16 µg/mL (≈ 34.2 µM) | 0.13 µg/mL (≈ 0.278 µM) | 0.13 µg/mL (≈ 0.278 µM) | 0.5 µg/mL (≈ 1.07 µM) | 16 µg/mL (≈ 34.2 µM) | 2 µg/mL (≈ 4.28 µM) | 125 µg/mL (≈ 267 µM) | 0.03 µg/mL (≈ 0.0642 µM) | > 125 µg/mL | MIC (Providencia rettgeri [4]): 0.13 µg/mL (≈ 0.278 µM); MIC (Escherichia coli [7]): 0.25 µg/mL (≈ 0.535 µM); MIC (Providencia rettgeri [14]): 32 µg/mL (≈ 68.4 µM); MIC (Staphylococcus aureus [21]): 32 µg/mL (≈ 68.4 µM); MIC (Escherichia coli [23]): 0.13 µg/mL (≈ 0.278 µM); MIC (Providencia stuartii [24]): 16 µg/mL (≈ 34.2 µM); MIC (Pseudomonas aeruginosa [25]): 0.13 µg/mL (≈ 0.278 µM); MIC (Staphylococcus aureus [26]): 0.13 µg/mL (≈ 0.278 µM); MIC (Staphylococcus aureus [27]): 8 µg/mL (≈ 17.1 µM); MIC (Escherichia coli [28]): 8 µg/mL (≈ 17.1 µM); MIC (Serratia marcescens): 2 µg/mL (≈ 4.28 µM); MIC (Escherichia coli [29]): 1 µg/mL (≈ 2.14 µM); MIC (Pseudomonas aeruginosa [30]): 16 µg/mL (≈ 34.2 µM); MIC (Escherichia coli [31]): 0.25 µg/mL (≈ 0.535 µM); MIC (Pseudomonas aeruginosa [32]): 4 µg/mL (≈ 8.56 µM); MIC (Enterobacter cloacae [33]): 1 µg/mL (≈ 2.14 µM)
2-{4,6-Diamino-3-[3-amino-6-(1-amino-ethyl)-tetrahydro-pyran-2-yloxy]-2-hydroxy-cyclohexyloxy}-5-methyl-4-methylamino-tetrahydro-pyran-3,5-diol; compound with 6-(2-carboxy-2-phenyl-acetylamino)-3,3-dimethyl-7-oxo-4-thia-1-aza-bicyclo[3.2.0]heptane-2-carbo | > 250 µg/mL | > 250 µg/mL | > 250 µg/mL | 250 µg/mL | > 250 µg/mL | 250 µg/mL | > 250 µg/mL | > 250 µg/mL | 125 µg/mL | > 250 µg/mL | > 250 µg/mL | > 250 µg/mL | > 250 µg/mL | > 250 µg/mL | 250 µg/mL | 16 µg/mL | > 250 µg/mL | > 250 µg/mL | 16 µg/mL | > 250 µg/mL | MIC (Staphylococcus aureus [34]): 32 µg/mL; MIC (Escherichia coli [35]): 250 µg/mL; MIC (Providencia rettgeri [36]): > 250 µg/mL; MIC (Escherichia coli [23]): 250 µg/mL; MIC (Providencia stuartii [24]): > 250 µg/mL; MIC (Pseudomonas aeruginosa [25]): > 250 µg/mL; MIC (Staphylococcus aureus [26]): > 250 µg/mL; MIC (Staphylococcus aureus [27]): > 250 µg/mL; MIC (Escherichia coli [28]): > 250 µg/mL; MIC (Serratia marcescens): > 250 µg/mL; MIC (Escherichia coli [29]): > 250 µg/mL; MIC (Pseudomonas aeruginosa [30]): > 250 µg/mL; MIC (Escherichia coli [31]): 250 µg/mL; MIC (Providencia rettgeri [37]): 32 µg/mL; MIC (Pseudomonas aeruginosa [32]): > 250 µg/mL; MIC (Enterobacter cloacae [33]): 250 µg/mL
NC[C@H]1O[C@H](O[C@H]2[C@H](O)[C@@H](O[C@H]3O[C@H](CO)[C@@H](O)[C@H](N)[C@H]3O)[C@H](N)C[C@@H]2N)[C@H](O)[C@@H](O)[C@@H]1O [KANAMYCIN] | > 125 µg/mL | > 125 µg/mL | 2 µg/mL (≈ 4.13 µM) | 32 µg/mL (≈ 66 µM) | 4 µg/mL (≈ 8.26 µM) | 2 µg/mL (≈ 4.13 µM) | > 125 µg/mL | > 125 µg/mL | 0.5 µg/mL (≈ 1.03 µM) | > 125 µg/mL | 1 µg/mL (≈ 2.06 µM) | 32 µg/mL (≈ 66 µM) | 32 µg/mL (≈ 66 µM) | 32 µg/mL (≈ 66 µM) | > 125 µg/mL | 8 µg/mL (≈ 16.5 µM) | 0.5 µg/mL (≈ 1.03 µM) | > 125 µg/mL | 0.05 µg/mL (≈ 0.103 µM) | > 125 µg/mL | MIC (Providencia rettgeri [4]): 0.5 µg/mL (≈ 1.03 µM); MIC (Escherichia coli [7]): 2 µg/mL (≈ 4.13 µM); MIC (Providencia rettgeri [14]): 2 µg/mL (≈ 4.13 µM); MIC (Staphylococcus aureus [21]): 125 µg/mL (≈ 258 µM); MIC (Escherichia coli [23]): 2 µg/mL (≈ 4.13 µM); MIC (Providencia stuartii [24]): 4 µg/mL (≈ 8.26 µM); MIC (Pseudomonas aeruginosa [25]): 63 µg/mL (≈ 130 µM); MIC (Staphylococcus aureus [26]): > 125 µg/mL; MIC (Staphylococcus aureus [27]): > 125 µg/mL; MIC (Escherichia coli [28]): 63 µg/mL (≈ 130 µM); MIC (Serratia marcescens): 1 µg/mL (≈ 2.06 µM); MIC (Escherichia coli [29]): > 125 µg/mL; MIC (Pseudomonas aeruginosa [30]): 63 µg/mL (≈ 130 µM); MIC (Escherichia coli [31]): 2 µg/mL (≈ 4.13 µM); MIC (Pseudomonas aeruginosa [32]): > 125 µg/mL; MIC (Enterobacter cloacae [33]): > 125 µg/mL
